In article PMC4457528, “Identification of Novel Small Molecule Inhibitors of Oncogenic RET Kinase” (PLoS ONE, 2015):
Where two headings read alike, the source gives them in different places.

Key:
Experiment in all cases: KinomeScan kinase panel, single concentration 10 µM
Format in all cases: binding
[1] = biological target: T1, KinomeScan kinase panel (Homo sapiens, UniProt P07947); conditions: kinase YES; 10 µM; read-out: score (%)
T1 construct: purchased DiscoveRx (KinomeScan)

[2] = biological target: T2, KinomeScan kinase panel (Homo sapiens, UniProt O75716); conditions: read-out: score (%)
T2 construct: purchased DiscoveRx (KinomeScan)

[3] = biological target: T3, KinomeScan kinase panel (Homo sapiens, UniProt P54762); conditions: EPHB1, 10 µM; read-out: score (%)
T3 construct: purchased DiscoveRx (KinomeScan)
T3 sequence (P54762 18-984): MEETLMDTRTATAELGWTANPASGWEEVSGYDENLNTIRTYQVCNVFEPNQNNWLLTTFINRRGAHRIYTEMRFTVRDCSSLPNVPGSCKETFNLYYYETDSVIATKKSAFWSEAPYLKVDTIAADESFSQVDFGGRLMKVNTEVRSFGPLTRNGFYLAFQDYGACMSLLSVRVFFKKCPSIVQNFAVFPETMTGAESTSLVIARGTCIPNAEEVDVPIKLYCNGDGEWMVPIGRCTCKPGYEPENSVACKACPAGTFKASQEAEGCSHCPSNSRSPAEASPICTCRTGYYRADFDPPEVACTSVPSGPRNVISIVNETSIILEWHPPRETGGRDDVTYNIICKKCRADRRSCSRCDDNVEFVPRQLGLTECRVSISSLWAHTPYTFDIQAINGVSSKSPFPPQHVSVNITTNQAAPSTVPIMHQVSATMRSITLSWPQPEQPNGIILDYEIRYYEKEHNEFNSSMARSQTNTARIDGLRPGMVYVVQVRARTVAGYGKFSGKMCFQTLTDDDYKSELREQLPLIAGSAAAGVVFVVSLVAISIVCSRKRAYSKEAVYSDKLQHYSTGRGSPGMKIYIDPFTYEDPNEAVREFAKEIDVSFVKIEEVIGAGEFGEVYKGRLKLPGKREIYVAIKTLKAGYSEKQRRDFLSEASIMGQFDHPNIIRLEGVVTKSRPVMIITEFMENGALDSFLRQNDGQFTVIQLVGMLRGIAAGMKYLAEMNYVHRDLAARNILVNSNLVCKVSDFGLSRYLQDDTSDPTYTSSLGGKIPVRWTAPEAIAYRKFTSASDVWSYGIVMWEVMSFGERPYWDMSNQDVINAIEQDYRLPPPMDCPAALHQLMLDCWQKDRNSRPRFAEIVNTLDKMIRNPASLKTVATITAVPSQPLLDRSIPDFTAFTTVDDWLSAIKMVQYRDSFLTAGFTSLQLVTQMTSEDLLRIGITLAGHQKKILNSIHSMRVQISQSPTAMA

[4] = biological target: T4, KinomeScan kinase panel (Homo sapiens, UniProt P50750); conditions: CDK9, 10 µM; read-out: score (%)
T4 construct: purchased DiscoveRx (KinomeScan)

[5] = biological target: T5, KinomeScan kinase panel (Homo sapiens, UniProt P15735); conditions: PHKG2, 10 µM; read-out: score (%)
T5 construct: purchased DiscoveRx (KinomeScan)
T5 sequence (P15735 1-406): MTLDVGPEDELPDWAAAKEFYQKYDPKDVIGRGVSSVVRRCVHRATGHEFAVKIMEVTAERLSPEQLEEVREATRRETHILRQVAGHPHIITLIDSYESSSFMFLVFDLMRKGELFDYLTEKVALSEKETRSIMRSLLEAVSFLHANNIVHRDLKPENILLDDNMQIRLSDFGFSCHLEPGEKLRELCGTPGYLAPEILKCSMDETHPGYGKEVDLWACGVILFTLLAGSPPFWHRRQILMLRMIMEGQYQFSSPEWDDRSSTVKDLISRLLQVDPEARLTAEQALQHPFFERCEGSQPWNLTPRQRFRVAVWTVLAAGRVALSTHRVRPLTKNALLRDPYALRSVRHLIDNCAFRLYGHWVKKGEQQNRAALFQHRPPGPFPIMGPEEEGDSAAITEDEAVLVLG

[6] = biological target: T6, KinomeScan kinase panel (Homo sapiens, UniProt Q9UQM7); conditions: CAMK2A, 10 µM; read-out: score (%)
T6 construct: purchased DiscoveRx (KinomeScan)

[7] = biological target: T7, KinomeScan kinase panel (Homo sapiens, UniProt P00519, T315I); conditions: 10 µM, read-out: score (%)
T7 construct: purchased DiscoveRx (KinomeScan)

[8] = biological target: T8, KinomeScan kinase panel (Homo sapiens, UniProt P00519, H396P); conditions: 10 µM, read-out: score (%)
T8 construct: purchased DiscoveRx (KinomeScan)

[9] = biological target: T9, KinomeScan kinase panel (Homo sapiens, UniProt Q96Q40); conditions: PFTAIRE2, 10 µM; read-out: score (%)
T9 construct: purchased DiscoveRx (KinomeScan)

[10] = biological target: T10, KinomeScan kinase panel (Homo sapiens, UniProt Q16566); conditions: CAMK4, 10 µM; read-out: score (%)
T10 construct: purchased DiscoveRx (KinomeScan)
T10 sequence (Q16566 1-473): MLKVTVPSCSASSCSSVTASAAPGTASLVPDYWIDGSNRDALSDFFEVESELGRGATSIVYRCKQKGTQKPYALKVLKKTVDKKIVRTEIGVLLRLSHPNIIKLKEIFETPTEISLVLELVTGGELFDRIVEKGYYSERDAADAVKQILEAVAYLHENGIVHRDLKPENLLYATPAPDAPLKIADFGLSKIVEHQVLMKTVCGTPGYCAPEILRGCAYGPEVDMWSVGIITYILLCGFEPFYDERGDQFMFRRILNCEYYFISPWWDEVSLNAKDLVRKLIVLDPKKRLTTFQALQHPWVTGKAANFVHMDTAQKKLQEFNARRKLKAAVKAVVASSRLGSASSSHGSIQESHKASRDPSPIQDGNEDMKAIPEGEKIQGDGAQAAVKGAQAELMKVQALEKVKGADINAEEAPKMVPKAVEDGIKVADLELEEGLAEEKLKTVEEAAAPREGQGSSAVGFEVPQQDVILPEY

[11] = biological target: T11, KinomeScan kinase panel (Homo sapiens, UniProt O00750); conditions: PIK3C2B, 10 µM; read-out: score (%)
T11 construct: purchased DiscoveRx (KinomeScan)

[12] = biological target: T12, KinomeScan kinase panel (Homo sapiens, UniProt Q8TDR2); conditions: read-out: score (%)
T12 construct: purchased DiscoveRx (KinomeScan)
T12 sequence (Q8TDR2 whole entry): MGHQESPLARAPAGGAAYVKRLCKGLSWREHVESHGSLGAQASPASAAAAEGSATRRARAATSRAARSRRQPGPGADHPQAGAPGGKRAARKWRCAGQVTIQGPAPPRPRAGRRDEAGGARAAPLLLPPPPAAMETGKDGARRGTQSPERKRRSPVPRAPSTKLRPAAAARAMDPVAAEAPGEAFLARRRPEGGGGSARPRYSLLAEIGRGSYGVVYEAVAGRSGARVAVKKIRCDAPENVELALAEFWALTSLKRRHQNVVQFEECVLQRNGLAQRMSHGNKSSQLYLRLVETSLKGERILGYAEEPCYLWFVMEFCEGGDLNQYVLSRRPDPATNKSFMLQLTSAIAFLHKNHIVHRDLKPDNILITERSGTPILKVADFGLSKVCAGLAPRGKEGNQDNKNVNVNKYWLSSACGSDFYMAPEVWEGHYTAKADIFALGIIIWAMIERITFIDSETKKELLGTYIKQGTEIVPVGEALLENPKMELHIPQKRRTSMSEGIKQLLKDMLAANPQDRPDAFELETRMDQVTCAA

T4 sequence (P50750 whole entry): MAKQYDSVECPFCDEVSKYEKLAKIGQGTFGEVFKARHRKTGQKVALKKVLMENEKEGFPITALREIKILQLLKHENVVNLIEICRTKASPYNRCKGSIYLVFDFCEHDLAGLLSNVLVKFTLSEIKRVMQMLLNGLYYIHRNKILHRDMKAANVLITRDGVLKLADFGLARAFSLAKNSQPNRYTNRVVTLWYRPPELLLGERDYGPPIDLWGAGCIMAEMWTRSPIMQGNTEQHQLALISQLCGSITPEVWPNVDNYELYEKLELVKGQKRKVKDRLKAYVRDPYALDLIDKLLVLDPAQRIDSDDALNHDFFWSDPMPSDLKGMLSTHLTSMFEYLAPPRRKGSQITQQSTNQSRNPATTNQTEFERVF
T1 sequence (P07947 whole entry): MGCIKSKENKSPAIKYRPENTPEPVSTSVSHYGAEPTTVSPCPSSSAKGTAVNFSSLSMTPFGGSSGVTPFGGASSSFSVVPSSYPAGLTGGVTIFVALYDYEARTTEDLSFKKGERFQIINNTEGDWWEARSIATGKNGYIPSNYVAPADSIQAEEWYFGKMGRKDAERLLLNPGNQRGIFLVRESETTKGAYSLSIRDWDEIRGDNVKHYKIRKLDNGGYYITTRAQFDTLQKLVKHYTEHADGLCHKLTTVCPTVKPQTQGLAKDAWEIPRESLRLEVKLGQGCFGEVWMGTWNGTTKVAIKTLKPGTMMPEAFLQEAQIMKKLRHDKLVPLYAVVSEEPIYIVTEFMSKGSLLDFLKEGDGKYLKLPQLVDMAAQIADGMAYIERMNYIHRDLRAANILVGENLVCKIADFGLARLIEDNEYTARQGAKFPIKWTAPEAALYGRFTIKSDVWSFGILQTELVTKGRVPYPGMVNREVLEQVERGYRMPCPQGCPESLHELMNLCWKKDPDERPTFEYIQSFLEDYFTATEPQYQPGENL
T11 sequence (O00750 whole entry): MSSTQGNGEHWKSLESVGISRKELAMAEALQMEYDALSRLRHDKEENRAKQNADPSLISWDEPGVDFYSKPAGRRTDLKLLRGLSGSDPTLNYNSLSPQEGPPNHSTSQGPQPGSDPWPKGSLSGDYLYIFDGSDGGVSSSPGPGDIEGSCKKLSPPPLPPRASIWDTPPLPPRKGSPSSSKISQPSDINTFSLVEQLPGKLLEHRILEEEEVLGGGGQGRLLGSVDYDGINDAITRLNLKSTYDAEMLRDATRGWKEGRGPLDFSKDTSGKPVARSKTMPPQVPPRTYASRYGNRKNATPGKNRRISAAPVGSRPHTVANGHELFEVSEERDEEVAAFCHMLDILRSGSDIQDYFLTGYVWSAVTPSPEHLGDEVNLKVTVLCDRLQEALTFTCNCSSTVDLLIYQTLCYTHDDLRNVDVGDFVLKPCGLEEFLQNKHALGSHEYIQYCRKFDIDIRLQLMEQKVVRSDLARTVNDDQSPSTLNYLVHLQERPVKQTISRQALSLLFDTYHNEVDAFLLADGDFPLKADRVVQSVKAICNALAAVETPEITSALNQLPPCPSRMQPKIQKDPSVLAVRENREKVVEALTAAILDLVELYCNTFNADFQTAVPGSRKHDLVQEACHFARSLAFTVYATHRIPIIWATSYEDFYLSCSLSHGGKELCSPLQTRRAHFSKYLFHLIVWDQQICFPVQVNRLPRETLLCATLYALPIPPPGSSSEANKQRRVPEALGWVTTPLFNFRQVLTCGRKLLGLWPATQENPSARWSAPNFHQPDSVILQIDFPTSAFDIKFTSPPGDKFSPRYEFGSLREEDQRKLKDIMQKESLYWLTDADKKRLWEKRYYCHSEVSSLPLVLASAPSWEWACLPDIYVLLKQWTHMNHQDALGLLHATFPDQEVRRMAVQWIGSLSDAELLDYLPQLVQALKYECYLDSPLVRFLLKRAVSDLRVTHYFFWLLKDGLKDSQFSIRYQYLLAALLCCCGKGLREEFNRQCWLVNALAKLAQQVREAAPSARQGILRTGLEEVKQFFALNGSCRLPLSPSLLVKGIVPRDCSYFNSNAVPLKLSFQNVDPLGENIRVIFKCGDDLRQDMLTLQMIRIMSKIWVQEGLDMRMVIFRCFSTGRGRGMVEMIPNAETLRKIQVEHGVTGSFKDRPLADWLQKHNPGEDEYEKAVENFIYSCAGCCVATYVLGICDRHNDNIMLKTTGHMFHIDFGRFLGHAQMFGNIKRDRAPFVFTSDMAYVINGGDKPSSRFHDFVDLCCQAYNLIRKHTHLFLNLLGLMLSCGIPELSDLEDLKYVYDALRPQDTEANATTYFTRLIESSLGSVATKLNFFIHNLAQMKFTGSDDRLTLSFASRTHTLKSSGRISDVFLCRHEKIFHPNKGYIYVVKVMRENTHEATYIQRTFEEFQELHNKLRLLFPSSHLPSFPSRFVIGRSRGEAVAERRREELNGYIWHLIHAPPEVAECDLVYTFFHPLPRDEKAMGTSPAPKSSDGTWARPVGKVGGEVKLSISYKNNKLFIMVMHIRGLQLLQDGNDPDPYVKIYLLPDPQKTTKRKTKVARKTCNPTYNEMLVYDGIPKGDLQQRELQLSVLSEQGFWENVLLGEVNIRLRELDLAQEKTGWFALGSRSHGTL
T9 sequence (Q96Q40 whole entry): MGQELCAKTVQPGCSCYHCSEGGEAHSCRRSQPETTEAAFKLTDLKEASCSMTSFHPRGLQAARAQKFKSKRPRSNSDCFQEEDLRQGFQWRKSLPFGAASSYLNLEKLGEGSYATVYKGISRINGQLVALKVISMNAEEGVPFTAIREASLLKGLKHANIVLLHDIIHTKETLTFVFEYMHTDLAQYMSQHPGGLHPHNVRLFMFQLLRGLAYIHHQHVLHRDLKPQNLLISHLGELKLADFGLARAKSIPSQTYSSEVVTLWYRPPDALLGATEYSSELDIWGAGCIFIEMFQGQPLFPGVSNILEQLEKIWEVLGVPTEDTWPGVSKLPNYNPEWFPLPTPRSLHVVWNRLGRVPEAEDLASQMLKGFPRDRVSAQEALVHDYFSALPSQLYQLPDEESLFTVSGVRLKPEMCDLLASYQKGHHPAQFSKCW
T6 sequence (Q9UQM7 whole entry): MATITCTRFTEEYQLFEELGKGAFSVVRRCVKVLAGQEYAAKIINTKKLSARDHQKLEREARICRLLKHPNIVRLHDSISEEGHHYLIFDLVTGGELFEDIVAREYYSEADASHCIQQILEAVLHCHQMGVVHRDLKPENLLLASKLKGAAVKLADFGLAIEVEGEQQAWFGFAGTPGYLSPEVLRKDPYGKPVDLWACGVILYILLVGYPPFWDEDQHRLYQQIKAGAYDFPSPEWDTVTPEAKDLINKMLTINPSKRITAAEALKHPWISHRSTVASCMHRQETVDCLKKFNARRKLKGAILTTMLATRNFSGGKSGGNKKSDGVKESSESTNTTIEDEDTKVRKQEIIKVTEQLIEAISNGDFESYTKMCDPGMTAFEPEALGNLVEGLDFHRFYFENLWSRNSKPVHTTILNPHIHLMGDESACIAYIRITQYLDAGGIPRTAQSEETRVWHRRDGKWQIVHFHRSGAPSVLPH
T2 sequence (O75716 whole entry): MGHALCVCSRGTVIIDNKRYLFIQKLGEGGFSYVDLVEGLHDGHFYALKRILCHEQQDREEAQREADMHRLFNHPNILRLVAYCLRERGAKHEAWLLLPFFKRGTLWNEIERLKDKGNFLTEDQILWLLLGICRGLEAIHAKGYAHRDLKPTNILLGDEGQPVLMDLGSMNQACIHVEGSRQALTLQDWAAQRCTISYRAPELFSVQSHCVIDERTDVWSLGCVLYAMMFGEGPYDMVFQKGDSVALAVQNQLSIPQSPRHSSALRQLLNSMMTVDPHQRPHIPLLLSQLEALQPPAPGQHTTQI

Row | Structure (SMILES) | remaining binding at 10 µM [1] [%] | remaining binding at 10 µM ([2]; kinase STK16, 10 µM) [%] | remaining binding at 10 µM [3] [%] | remaining binding at 10 µM [4] [%] | remaining binding at 10 µM [5] [%] | remaining binding at 10 µM [6] [%] | remaining binding at 10 µM ([7]; ABL1(T315I)) [%] | remaining binding at 10 µM ([8]; ABL1(H396P)) [%] | remaining binding at 10 µM [9] [%] | remaining binding at 10 µM [10] [%] | remaining binding at 10 µM [11] [%] | remaining binding at 10 µM ([12]; kinase STK35, 10 µM) [%] | remaining binding at 10 µM ([2]; STK16, 10 µM) [%] | remaining binding at 10 µM ([12]; STK35, 10 µM) [%] | remaining binding at 10 µM ([7]; ABL1(T315I)-nonphosphorylated) [%] | remaining binding at 10 µM ([7]; ABL1(T315I)-phosphorylated) [%] | remaining binding at 10 µM ([8]; ABL1(H396P)-nonphosphorylated) [%] | remaining binding at 10 µM ([8]; ABL1(H396P)-phosphorylated) [%]
1 | CCN1CCN(Cc2ccc(NC(=O)c3ccc(C)c(NC(=O)c4cncc(-c5cccs5)c4)c3)cc2C(F)(F)F)CC1 [ALW-II-41-27] | 0.1 | > 30 | 0.15 | > 30 | > 30 | > 30 | 0.7 | 0.5 | > 30 | > 30 | > 30 | 21 |  |  |  |  |  | 
2 | CCN1CCN(Cc2ccc(NC(=O)c3ccc(C)c(/C=C/c4cnc5[nH]ccc5c4Cl)c3)cc2C(F)(F)F)CC1 [HG-6-63-01, (E)-3-(2-(4-chloro-1H-pyrrolo[2,3-b]pyridin-5-yl)vinyl)-N-(4-((4-ethylpiperazin-1-yl)methyl)-3-(trifluoromethyl)phenyl)-4-methylbenzamide] | 0.85 |  | 0.7 | > 30 | > 30 | > 30 | 0 | 0.2 | > 30 | > 30 | > 30 |  | 18 | > 30 |  |  |  | 
3 | CCN1CCN(Cc2ccc(NC(=O)c3ccc(C)c(C#Cc4cccnc4)c3)cc2C(F)(F)F)CC1 [XMD15-44] | 0.1 | 100 | 0.5 | > 30 | 92 | > 30 |  |  | 6.4 | > 30 | 100 | 1.6 |  |  | 2.8 | 2.6 | 0 | 0
